As a reminder, the IC50 is the concentration that inhibits the measured activity by half. Read a low IC50 as greater potency.

This passage reports IC50 results from ChEMBL document CHEMBL1155089, “Discovery of an Aurora kinase inhibitor through site-specific dynamic combinatorial chemistry” (Bioorg Med Chem Lett, 2008).

The target in the assay is T1, Aurora kinase A (Homo sapiens, UniProt O14965).
T1 sequence (O14965 whole entry): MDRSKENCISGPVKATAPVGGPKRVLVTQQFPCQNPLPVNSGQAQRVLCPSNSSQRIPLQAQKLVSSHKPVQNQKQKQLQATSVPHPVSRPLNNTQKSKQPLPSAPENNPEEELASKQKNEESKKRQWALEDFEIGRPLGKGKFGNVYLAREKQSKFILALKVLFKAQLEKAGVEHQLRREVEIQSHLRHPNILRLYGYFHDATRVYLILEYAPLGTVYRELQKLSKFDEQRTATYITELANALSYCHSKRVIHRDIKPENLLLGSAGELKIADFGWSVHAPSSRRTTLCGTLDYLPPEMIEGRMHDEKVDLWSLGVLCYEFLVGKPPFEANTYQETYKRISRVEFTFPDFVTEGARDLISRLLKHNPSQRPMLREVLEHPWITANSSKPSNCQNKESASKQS
In words: Inhibition of Aurora kinase A.
In turn, `CCCCNC(=O)c1cccc(NC(=O)CCCCCNc2ncnc3nc[nH]c23)c1` yielded an IC50 of 2.9 µM.

On to `CCCCNC(=O)c1cccc(NC(=O)CCCCCCNc2cc(N)ncn2)c1`, for which the concentration for half-maximal inhibition (IC50) was found to be 17 µM.

On to `CCCCCCNc1ncnc2nc[nH]c12`, for which the IC50 is greater than 100 µM.
